Converted amounts (≈) assume the structure as drawn. “Also recorded” adds a separate entry of the source. Where two headings read alike, the source gives them in different places.
What was measured:
Type in all cases: physicochemical
[1] = Compressibility (tensile strength of compressed powder); conditions: φ6 mm round tooling, compressed at 10 kN, T=2H/πDL
Protocol: Approximately 80 mg of Form K1 or Form I of WO2017002095A1 was added into the dies of φ6 mm round tooling, compressed at 10 kN manually, and then stored in a desiccator for 24 hours until complete elastic recovery. Radial crushing force (hardness, H) was tested with an intelligent tablet hardness tester. Diameter (D) and thickness (L) were tested with a caliper. Tensile strength of the powder with different hardness was calculated with the following formula: T=2H/πDL. Under a certain force, the greater the tensile strength, the better the compressibility.

[2] = Solubility in buffers of pH 7.0, 7.4 and 8.7 (HPLC); conditions: for solubility at 2 h: phosphate buffer, thermodynamic from solid, read-out: Solubility after equilibration for 2 hours
Protocol: A sufficient amount of Form K1 or Form I of WO2017002095A1 was suspended in buffers of pH 7.0, 7.4 and 8.7. After being stirred and equilibrated for 2 hours, the suspension was centrifuged to obtain supernatant. Concentration (mg/mL) of the supernatant was analyzed by HPLC.

[3] = Adhesiveness (amount sticking to the punch); conditions: φ8 mm round tooling, 10 kN, held 30 s, compression repeated twice
Protocol: Approximately 30 mg of Form K1 or Form I of WO2017002095A1 was weighed and then added into the dies of φ8 mm round tooling, compressed at 10 kN and held for 30 s. The amount of material sticking to the punch was weighed. The compression was repeated twice and the cumulative amount and average amount of solids sticking to the punch during the compression were recorded.

[4] = Solubility in organic solvents (incremental solvent addition)
Protocol: A certain amount of Form K1 or Form I of WO2017002095A1 was added into a glass vial. Organic solvent was added into the glass vial in increments of 100 μL. Solid was quickly dispersed in solvent through oscillation or sonication, and the process was monitored to see whether the solid was completely dissolved. No more solvent was added when solids were completely dissolved, or a total volume of solvent reached 1.5 mL. According to mass of sample (m) and volume of solvent added, solubility (S) of different crystalline forms in organic solvent was calculated.

[5] = Slurry competition experiments between Form K1 and Form I in water; conditions: 5° C. and room temperature
Protocol: Approximately 30 mg of Form K1 and Form I of WO2017002095A1 were weighed and suspended into water at 5° C. and room temperature, to evaluate the stability of Form K1 and Form I of WO2017002095A1.

[6] = Physical stability of crystalline form in water (suspension, magnetic stirring or shaking, XRPD); conditions: for Physical stability in water (crystalline form change): magnetic stirring and shaking at room temperature and 5° C., up to 7 days
Protocol: The following experiments were conducted to compare physical stability of Form K1 of the present disclosure and Form I of WO2017002095A1 in water. Approximately 10 mg of Form K1 and Form I solids were added into 1.0 mL of pure water separately to form suspensions. The suspensions were dispersed by magnetic stirring and shaking at room temperature and 5° C. to evaluate the physical stability of Form K1 and Form I of WO2017002095A1 in water.

[7] = Stability of drug substance at long-term and accelerated conditions (XRPD); conditions: for Solid form after storage: one month
Protocol: Four samples, 10 mg each of Form K1 of the present disclosure was stored in HPLC glass vials. The HPLC glass vials were capped in sealed conditions, or covered with Parafilm with 3-5 pinholes in open conditions. After one month, solid forms were checked by XRPD.

[8] = Physical stability under manual grinding (XRPD); conditions: ground manually in a mortar for 5 minutes
Protocol: Form K1 was ground manually in a mortar for 5 minutes.

[9] = Form change during capsule formulation process (XRPD); conditions: before and after capsule preparation
Protocol: Form K1 capsules were prepared according to the formulation listed in Table 11 and the preparation process described in Table 12. XRPD was performed to test the form change before and after capsule preparation.

[10] = listed as Form I of WO2017002095A1

In the case of CC#CC(=O)N1CCC[C@H]1c1nc(-c2ccc(C(=O)Nc3ccccn3)cc2)c2c(N)nccn12 [Form I, (S)-4-(8-amino-3-(1-(but-2-ynoyl)pyrrolidin-2-yl)imidazo[1,5-a]pyrazin-1-yl)-N-(pyridin-2-yl)benzamide, reference compound], the Tensile strength [1, 10] was “Unable to be compressed into a tablet”, the “Solubility after equilibration for 2 hours” value (from here on “Solubility … for 2 hours”) ([2]; pH = 7.0 phosphate aqueous solution) was 64 µg/mL and the “Solubility … for 2 hours” value ([2]; pH = 7.4 phosphate aqueous solution) was 55 µg/mL. For the same compound, the “Solubility … for 2 hours” value ([2]; pH = 8.7 phosphate aqueous solution) was 56 µg/mL, the “Average amount sticking to the punch” value [3, 10] was 45 µg and the “Cumulative amount sticking to the punch” value [3, 10] was 90 µg. For the same compound, the Solubility ([4]; 1,4-Dioxane) was “S < 13.1 mg/mL”, the Solubility ([4]; 2-methyltetrahydrofuran) was “S < 8.9 mg/mL” and the Solubility ([4]; Acetone) was “S < 6.5 mg/mL”. For the same compound, the Solubility ([4]; Acetonitrile) was “S < 7.8 mg/mL”, the Solubility ([4]; Ethanol) was “S < 6.4 mg/mL” and the Solubility ([4]; Ethyl acetate) was “S < 7.9 mg/mL”. The Solubility ([4]; Isopropanol) was “S < 6.5 mg/mL”, the Solubility ([4]; Methanol) was “S < 27.0 mg/mL” and the Solubility ([4]; Methyl ethyl ketone) was “S < 7.6 mg/mL”. The Solubility ([4]; Methyl isobutyl ketone) was “S < 7.7 mg/mL”, the Solubility ([4]; Tetrahydrofuran) was “S < 16.1 mg/mL” and the Solubility ([4]; n-Butanol) was “S < 8.7 mg/mL”. The Solubility ([4]; n-Propanol) was “S < 7.5 mg/mL”, the “Form conversion in slurry competition” value [5] was “convert into Form K1” and the “Physical stability in water (crystalline form change)” value [6] was “crystallinity decrease and almost converts into amorphous”. The “Solid form changes in the suspension” value ([6]; water, magnetic stirring, room temperature, 4 hours) was “crystallinity decrease and almost converts into amorphous”.
With CC#CC(=O)N1CCC[C@H]1c1nc(-c2ccc(C(=O)Nc3ccccn3)cc2)c2c(N)nccn12 [Form K1, (S)-4-(8-amino-3-(1-(but-2-ynoyl)pyrrolidin-2-yl)imidazo[1,5-a]pyrazin-1-yl)-N-(pyridin-2-yl)benzamide] the “Stability of drug substance (time kept stable)” value ([7]; 25° C./60% RH and 40° C./75% RH, sealed and open) was “stable for at least one month”, the “Solid form after storage” value ([7]; 25° C./60% RH, open) was “Form K1” and the “Solid form after storage” value ([7]; 25° C./60% RH, sealed) was “Form K1”. The “Solid form after storage” value ([7]; 40° C./75% RH, open) was “Form K1”, the “Solid form after storage” value ([7]; 40° C./75% RH, sealed) was “Form K1” and the Tensile strength [1] was 1.31 MPa. For the same compound, the solubility at 2 h ([2]; pH 7, aqueous buffer, pH = 7.0 phosphate aqueous solution) was 79 µg/mL (≈ 170 µM), the solubility at 2 h ([2]; pH 7.4, aqueous buffer, pH = 7.4 phosphate aqueous solution) was 69 µg/mL (≈ 148 µM) and the solubility at 2 h ([2]; pH 8.7, aqueous buffer, pH = 8.7 phosphate aqueous solution) was 66 µg/mL (≈ 142 µM). The “Average amount sticking to the punch” value [3] was 30 µg, the “Cumulative amount sticking to the punch” value [3] was 60 µg and the “Physical stability under grinding (form change)” value [8] was “no obvious form change or crystallinity decrease”. The Solubility ([4]; 1,4-Dioxane) was “S > 102.0 mg/mL”, the Solubility ([4]; 2-methyltetrahydrofuran, organic solvent or mixture, thermodynamic from solid, 2-methyltetrahydrofuran, read-out: Solubility) was > 17600 µg/mL and the Solubility ([4]; Acetone) was “S > 137.0 mg/mL”. For the same compound, the Solubility ([4]; Acetonitrile) was “S > 36.3 mg/mL”, the Solubility ([4]; Ethanol) was “S > 120.0 mg/mL” and the Solubility ([4]; Isopropanol) was “S > 48.0 mg/mL”. The Solubility ([4]; Methanol) was “S > 89.0 mg/mL”, the Solubility ([4]; Methyl ethyl ketone) was “S > 114.0 mg/mL” and the Solubility ([4]; Tetrahydrofuran) was “S > 142.0 mg/mL”. The Solubility ([4]; ethyl acetate, organic solvent or mixture, thermodynamic from solid, Ethyl acetate, read-out: Solubility) was > 13200 µg/mL, the Solubility ([4]; methyl isobutyl ketone, organic solvent or mixture, thermodynamic from solid, Methyl isobutyl ketone, read-out: Solubility) was > 10000 µg/mL and the Solubility ([4]; n-Butanol) was “S > 30.3 mg/mL”. The Solubility ([4]; n-Propanol) was “S > 58.0 mg/mL”, the “Form change during capsule formulation process” value [9] was “doesn't change” and the “Physical stability in water (crystalline form change)” value [6] was “no crystalline form change; also recorded: doesn't change”.
